These results are taken from the METLIN SMRT retention time set (Domingo-Almenara et al. 2019).

Molecules are shown by their SMILES.

The data set in a line: gradient 5% acetonitrile 3 min, to 50% in 2 min, to 85% in 15 min, held 3 min, 100 µL/min. Conditions: column: Zorbax Extend-C18 2.1 x 50 mm; eluents: water / acetonitrile, 0.1% formic acid. A digest of the protocol:
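Pure standards were run in mixtures of ~100 molecules by HPLC coupled to a quadrupole time-of-flight mass spectrometer. The column was a Zorbax Extend-C18 (2.1 × 50 mm, 1.8 μm) at 100 μL/min, with water and acetonitrile each containing 0.1% formic acid, in positive and negative ionization mode. Dead and dwell volumes were 40 μL and 900 μL. Retention time was taken from computationally picked adduct peaks, each manually inspected, with data collected over 3 months.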
Turning to `Cc1ccc(NC(=O)C2CC(=O)N(c3n[nH]c4cc(Br)ccc34)C2)cc1` (stereo not given), the RP-LC retention time worked out at 839 s.
The compound `Cc1sc(-c2noc(C(C)C)n2)cc1S(=O)(=O)N1CCC(C(=O)N2CCOCC2)CC1` came in with an RP-LC retention time of 909 s.
As for `Cc1cc(C)c(S(=O)(=O)N2CCC(n3cnc4ccc(C)cc4c3=O)CC2)c(C)c1`, the RP-LC retention time amounted to 640 s.
`CC(C)c1ccc(-n2nc(N3CCN(C(=O)c4ccc5c(c4)OCO5)CC3)ccc2=O)cc1` returned an RP-LC retention time of 914 s.
Then `CCS(=O)(=O)c1nc2ccc(NS(=O)(=O)c3c(C)cc(C)cc3C)cc2s1`, with 958 s; and `Nc1nc(OCc2ccccc2)c2[nH]cnc2n1`, with 654 s; and `O=C(Nc1ccc2c(c1)OCO2)C1CCCN(c2ncc(-c3ccccc3)cn2)C1` (stereo not given), with 1040 s.
For the compound `O=C(CSCc1ccccc1)NCC1CCN(C(=O)Nc2ccc(F)cc2)CC1`, the RP-LC retention time was 770 s.
Turning to `COc1ccc(N2CCN(C(=O)CN3C(=O)c4ccccc4Sc4ncccc43)CC2)cc1`, the RP-LC retention time came out at 725 s.
`CC1Cc2ccccc2N1C(=O)Cc1cc(-c2ccc(F)cc2)on1` (stereo not given): the RP-LC retention time was determined as 1000 s.
`CC1=C(c2ccccc2)S(=O)(=O)N=C1N1CCCN(C(=O)c2ccsc2)CC1` had an RP-LC retention time of 571 s.
As for `CC(=O)N1CCc2ccccc2C1C(=O)NCc1ccc(C)c(C)c1` (stereo not given), the figure is 833 s.
`CCS(=O)(=O)N1CC(=O)N(c2ccc(Cl)cc2)C(C)(C(=O)NC2CCCCC2)C1` (stereo not given) gave an RP-LC retention time of 882 s.
`O=C(NCc1ccc(F)cc1)N1CCN(Cc2nc3cc(-c4ccccc4)ccc3o2)CC1` yielded an RP-LC retention time of 850 s.
`CN1C(=O)Cc2cc(C(=O)NC3CCCC3)ccc21`: the RP-LC retention time came to 665 s.
Compound `CCc1nc(-c2csc(S(=O)(=O)N3CCC(C(=O)N4CCCCC4)CC3)c2)no1` showed an RP-LC retention time of 903 s.
Consider `Cc1ccc(Cn2nc3c(S(=O)(=O)N4CCCCC4)cccn3c2=O)c(C)c1`, for which the RP-LC retention time came to 967 s.
As for `O=C(C1=NN(Cc2ccccc2)c2ccc(Cl)cc2S1(=O)=O)N1CCOCC1`, the figure is 824 s.
Then `Cc1ccc(CNC(=O)c2c(OCC(C)C)cc(=O)n3c2CCCCC3)o1`, with 786 s.
As for `COc1cccc(C2Cn3nnc(-c4nc(-c5cccc(C(F)(F)F)c5)no4)c3CO2)c1` (stereo not given), the figure is 1270 s; as for `Cc1cc(C(=O)NCC2CCCO2)c2cccc(C)c2n1` (stereo not given), 616 s; as for `Cc1ccccc1S(=O)(=O)N1CCCC(CCC(=O)O)C1` (stereo not given), 774 s.
With `CCNc1nc(C)cc(N2CCN(C(=O)Nc3cc(OC)cc(OC)c3)CC2)n1`, the RP-LC retention time turned out to be 657 s.
`COCCn1cc2c3c(cccc31)CN(C(=O)Nc1cc(Cl)ccc1C)CC2` came in with an RP-LC retention time of 679 s.
Then `Cc1oc2ccn(Cc3cccc(F)c3)c(=O)c2c1C(=O)NC1CCCCCC1`, with 1270 s.
Consider `COC(=O)C1CCN(C(=O)Cc2csc(Nc3ccc(F)cc3)n2)CC1`, for which the RP-LC retention time is 689 s.
Then `Cc1cccc2nnc(N3CCC(C(=O)NCc4ccc(N5CCCCC5)cc4)CC3)n12`, with 558 s; and `N#Cc1cnn2ccn(C3OC(CO)C(O)C3O)c12` (stereo not given), with 614 s; and `Cc1ccc(Nc2nc(N3CCN(C(=O)c4ccco4)CC3)nc3[nH]ncc23)cc1`, with 616 s.
Then `Cn1c(C(=O)NC2CCCCCC2)cc2sccc21`, with 1020 s; and `C=CCN1C(=O)COc2ccc(-c3nc(NC(=O)c4cc(OC)c(OC)c(OC)c4)sc3C)cc21`, with 1050 s; and `O=C(NCc1cccnc1)C1CCN(Cc2cc3ccccc3n2Cc2cccc(F)c2)CC1`, with 608 s.
As for `CCOc1cccc(CN2C[C@@H](CO)[C@H](c3ccncc3)C2)c1`, the figure is 546 s; as for `Cc1cc(C)cc(-n2ccnc2SCC(=O)Nc2cc(C)on2)c1`, 755 s; as for `Cn1nccc1C(=O)N1CC(c2nc(CCOCC3CCCC3)no2)C1`, 824 s.
Regarding `CCC(=O)N(CC(=O)N1CCc2sccc2C1COc1ccccc1OC)C(C)C` (stereo not given), the RP-LC retention time stood at 855 s.
Then `COCCn1c(-c2cccc(OC)c2)cnc1NC(=O)Nc1cccc(Cl)c1`, with 714 s.
As for `Cc1nnsc1C(=O)N1CCC(CNC(=O)c2ccccc2C(F)(F)F)CC1`, the figure is 674 s.
In turn, `CN(C)CCNC(=O)C1CCc2sc(C(=O)N3CCCC3)cc2C1` (stereo not given) had an RP-LC retention time of 660 s.
As for `Cc1onc(-c2ccccc2Cl)c1C(=O)NCC1(c2cccs2)CC1`, the figure is 950 s; as for `C=CCn1c(=O)c2ccccc2n(Cc2nc(-c3ccc(CC)cc3)no2)c1=O`, 1160 s.
As to `CN(CCc1noc(-c2ccc(C(=O)N(C)Cc3ccco3)cc2)n1)C(=O)c1ccccc1`, the RP-LC retention time was determined as 817 s.
Then `COc1ccc(CCc2nc3nccc(-c4ccc(OC)c(OC)c4)n3n2)cc1`, with 856 s; and `Cc1ccc(NC(=O)Cn2cnc3nc(-c4cccnc4)ncc3c2=O)cc1F`, with 656 s; and `CCn1ccc(C(=O)N2CC(c3nc(-c4ccsc4)nn3C)C2)n1`, with 695 s.
As for `CCOc1nc2ccccc2nc1N1CCCC(C(=O)N2CCCC2)C1` (stereo not given), the figure is 1070 s; as for `Cc1cccc(OCc2nc(-c3ccc4ncn(C(C)C)c4c3)no2)c1`, 839 s; as for `COCCN(Cc1ccc(Cl)cc1)Cc1cc(=O)n2ccccc2n1`, 635 s.
As for `CC(=O)N1CCC(CC(=O)N2CCCCCCN(C)C(=O)[C@@H]3CCC[C@@H]32)CC1`, the figure is 663 s; as for `CCN1C(=O)c2c(C(=O)NCCc3cccc(C)c3)ncn2CC1(C)C(=O)NC1CCCC1` (stereo not given), 819 s; as for `COc1ccc(-c2c(C)noc2NC(C)=O)cc1S(=O)(=O)Nc1ccc2c(c1)OCCO2`, 707 s.
`Cc1ccc(NS(=O)(=O)c2ccc3c(c2)C(=O)N(C)c2ncccc2O3)cc1F` yielded an RP-LC retention time of 957 s.
Turning to `Cc1nn(-c2nc(CC(=O)N3CCOCC3)cs2)c(C)c1Cl`, the RP-LC retention time worked out at 842 s.
`CCn1c(=O)c(N2CCCC(C(=O)N3CCN(c4cc(C)ccc4C)CC3)C2)nc2ccccc21` (stereo not given) displayed an RP-LC retention time of 1380 s.
In turn, `O=C(C1CCCCC1)N1CCCC1c1nc2ccccc2s1` (stereo not given) came in with an RP-LC retention time of 966 s.
As for `Cc1cc(C(=O)N2CCC(Oc3nc4c(Cl)cccc4s3)CC2)no1`, the figure is 956 s; as for `COC(=O)C1=CN(c2ccc(F)cc2C)c2ccccc2S1(=O)=O`, 911 s; as for `CC(=O)N1CCCN(C2=NS(=O)(=O)C(c3ccc(Cl)cc3)=C2C)CC1`, 718 s.
`Cc1nn(CC(=O)NC2CCCC2)c(=O)c2cc(-c3ccccc3)nn12` displayed an RP-LC retention time of 852 s.
Then `CCC(C)(C)NC(=O)c1ccc2c(c1)N(C(=O)NC)CC2`, with 705 s; and `COc1ccc(NC(=O)Cn2nc3nc(N4CCCC(C)C4)ccn3c2=O)cc1OC` (stereo not given), with 844 s; and `CCOc1nccnc1NC1CCN(C(=O)c2cccs2)CC1`, with 921 s.
Compound `CCCNC(=O)CCc1nc2ccccc2n(CC(=O)Nc2ccc(OC)c(Cl)c2)c1=O` yielded an RP-LC retention time of 805 s.
As for `O=C(CCn1nnc2cc(S(=O)(=O)N3CCCCC3)ccc21)N1CCN(c2ccccn2)CC1`, the figure is 665 s; as for `CCCCS(=O)(=O)c1cc2c(cc1NC(=O)c1ccccc1Br)n(C)c(=O)n2C`, 896 s.
On to `CCNC(=O)NCCC1CCN(S(=O)(=O)c2ccc(C)cc2)CC1`, for which the RP-LC retention time is 748 s.
`O=C(CSc1nc(-c2ccccc2)ns1)Nc1nc2ccccc2s1` showed an RP-LC retention time of 1000 s.
`Cc1cc(C)n(Cc2nc(-c3ccc(NC(=O)CC(C)(C)C)cc3)oc2C)n1` had an RP-LC retention time of 939 s.
As for `CN(C)CCNC(=O)Cn1cnc2onc(-c3ccc(F)cc3)c2c1=O`, the figure is 620 s.
Compound `NS(=O)(=O)c1ccc(CCNCc2ccc(-c3ccc(F)cc3)o2)cc1` yielded an RP-LC retention time of 643 s.
Take `Cc1ccc(CN2CC(Cn3c(C)cnc3-c3ccncc3)C2)o1`: the RP-LC retention time came to 611 s.
`CC(C)c1ccc(S(=O)(=O)NCc2ccsc2)cc1` returned an RP-LC retention time of 954 s.
`CCn1cnc(S(=O)(=O)N2CCCC(C(=O)NCc3ccccc3C)C2)c1` (stereo not given): the RP-LC retention time is 726 s.
Then `O=C(NCc1ccco1)Nc1cccn2c(C3CCC3)nnc12`, with 694 s; and `CS(=O)(=O)N(C1CCOCC1)C1CN(C(=O)NCCc2ccccc2)C1`, with 684 s.
Take `COCCN(CC(=O)N1CCc2sccc2C1COc1ccccc1F)C(=O)C(C)C` (stereo not given): the RP-LC retention time was 912 s.
Then `Cc1ccc(NC(=O)Cn2c(C(C)C)nc3c(c2=O)CN(Cc2ccccc2)CC3)cc1C`, with 738 s; and `CC1=C(c2ccc(Cl)cc2)S(=O)(=O)N=C1N1CCCN(C(=O)C2CCC2)CC1`, with 850 s; and `CCC(=O)Nc1ccc(-c2nc(-c3ccc(Cl)cc3)no2)cc1`, with 1130 s.
As to `CCCn1ccc2sc(C)c(C(=O)NCc3ccccc3OCC)c2c1=O`, the RP-LC retention time amounted to 982 s.
